Values quoted from earlier work in patent publication US9353081B2, “Bicyclic dihydroquinoline-2-one derivatives” (Hoffmann-La Roche Inc., priority 2011, dated 2016).

Columns and labels:
[1] = system: patients with primary aldosteronism; settings: cited from earlier work
[2] = system: rat model of chronic kidney disease; settings: cited from earlier work; for plasma aldosterone: FAD286: 4 weeks of treatment, spironolactone: 4 and 8 weeks of treatment; for angiotensin II and salt-stimulated PAI-1 mRNA expression in the aorta and the heart / cardiac and aortic medial hypertrophy / renal effects of angiotensin II and high salt (albuminuria, azotemia, renovascular hypertrophy, glomerular injury, PAI-1 and osteopontin mRNA, tubulointerstitial fibrosis): rat CKD model
[3] = system: rats with experimental heart failure; settings: cited from earlier work

| Structure (SMILES) | blood pressure [1] | hypokalemia [1] | selectivity (effects on the glucocorticoid axis, cortisol synthesis) [1] | circulating aldosterone levels ([1]; oral) | plasma aldosterone [2] | angiotensin II and salt-stimulated PAI-1 mRNA expression in the aorta and the heart [2] | cardiac and aortic medial hypertrophy [2] | renal effects of angiotensin II and high salt (albuminuria, azotemia, renovascular hypertrophy, glomerular injury, PAI-1 and osteopontin mRNA, tubulointerstitial fibrosis) [2] | blood pressure and cardiovascular function and structure [3] | kidney function and morphology [3] |
| --- | --- | --- | --- | --- | --- | --- | --- | --- | --- | --- |
| N#Cc1ccc([C@H]2CCc3cncn32)c(F)c1 [LCI699] | mildly decreased | corrected | poor selectivity | significantly lower | – | – | – | – | – | – |
| N#Cc1ccc(C2CCCc3cncn32)cc1 (centres unmarked) [FAD286] | – | – | – | – | reduced | not | attenuated | prevented these renal effects | improved | improve |
| CC(=O)S[C@@H]1CC2=CC(=O)CC[C@]2(C)[C@H]2CC[C@@]3(C)[C@@H](CC[C@@]34CCC(=O)O4)[C@H]12 [spironolactone] | – | – | – | – | increased | enhanced | attenuated | prevented these renal effects | – | – |
